One assay deals with LR5 cell line. As to conditions: LR5 cell line (Bellamy et al., 1991); cited from earlier work.
Assay [1] concerns 8226 cells adhered to FN (8226/FN). Nature of the assay: Alkaline comet assay of melphalan induced DNA crosslinks. In kind it is cell-based, human. As to conditions: 2 h, FIG. 3B. As for the experimental part:
(§1) The alkaline comet assay was used to detect melphalan induced DNA crosslinks in 8226 myeloma cells. Cells cultured in suspension or adhered to FN were treated with varying doses of melphalan or vehicle control for two hours. Following drug treatment, single strand breaks were induced, by irradiating appropriate samples at 900 rads (MARK I model 68A irradiator). After drug treatment and irradiation, 5,000 cells were placed in a microcentrifuge tube containing 1 ml cold PBS, and the alkaline comet assay was performed as described by Kent et al. (1995). Fifty images were randomly captured per slide, and images by fluorescence microscopy were quantified using Optimus^R software as previously described (Hazlehurst et al., 2001; Kent et al., 1995).
(§2) The percent crosslinking was calculated as follows:
(§3) The data shown are the means of three independent experiments (n=50 images for each dose of each independent experiment). An analysis of variance (ANOVA) model was used to quantify the relationship between the response variable and the two independent variables.

The test system of another assay is 8226/LR5 cell line. The assay is described as above. The format is cell-based, human. As to conditions: 2 h, FIG. 3A. As for the experimental part: as §1, §2, §3
In assay [2] the test system is 8226 cells in suspension (8226/SUS). The assay is described as above. The format is cell-based, human. As to conditions: 2 h. On the procedure:
as §1, §2, §3

Assay [3] has as its system 8226 cells. Nature of the assay: Cell-cycle analysis (BrDU/PI flow cytometry). In kind it is cell-based, human. As to conditions: 48 h post 10 μM melphalan, 2 hour treatment. As for the experimental part:
(§4) To check the melphalan effect on cell cycle progressing, 8226 and LR5 were treated with 10 μM, 25 μM and 50 μM of melphalan and collected at 24 h and 48 h. Cells were then fixed with 70% EtOH at 4° C. overnight; and resuspended with 500 μl of PBS containing 25 μg/ml propidium Iodide (PI) (Sigma, St. Louis, Mo.) and 1.25 mg/ml Rnase A (Invetrogen) and incubated at 37° C. for 30 minutes in the dark. BrDU/PI staining was done as described (Hazlehurst et al., 2000). Briefly, within various of time post-drug treatment, cells were treated with 10 μM Bromodeoxyuridine (BrDU) at 37° C. for 30 mins, fixed in 70% ethanol., denatured (2MHCl) and neutralized (0.1M sodium borate). Cell were stained with anti-BrDU FITC antibody (BD, Phamingen), then resuspended with 500 μl of PBS containing 25 μg/ml propidium Iodide (PI) (Sigma, St. Louis, Mo.) and 1.25 mg/ml Rnase A (Invetrogen) and incubated at 37° C. for 30 mins in the dark. Nuclear staining was analyzed on a FACScan flow cytometer (Becton Dickinson, San Jose, Calif.). Watson (Pragmatic) from FlowJo 4.4.4 was used for DNA content analysis.
(In general: Flow cytometry measures light scatter and fluorescence of single cells or particles in a stream.)

For another assay, the system named is LR5 cells. Nature of the assay: Cell-cycle analysis (BrDU/PI flow cytometry). The format is cell-based, human. As to conditions: 48 h post 10 μM melphalan, 2 hour treatment. As for the experimental part:
as §4

In another assay the test system is 8226/LR5 cells. In words: Alkaline comet assay, ICL formation and removal. The format is cell-based, human. As to conditions: within 17 hours after maximum ICL formation; 2 h exposure to 50 μM melphalan. On the procedure:
(§5) The alkaline comet assay was used to detect melphalan induced DNA crosslinks in 8226 and 8226/LR5 myeloma cells (Hazlehurst et al., 2003). To examine the dose response, 2×10^5 cells were treated with 25 μM. 50 μM and 100 μM melphalan or vehicle control for two hours, washed in PBS and cultured in drug-free medium for another three hours culture. After drug treatment, samples were irradiated at 900 rads (MARK I model 68A irradiator). The alkaline comet assay was performed according to the manufacturer's instructions (Travegene). Fifty images per slide were randomly captured by fluorescence microscopy and images were quantified using LAI comet analysis software (Loats Associates, Inc. Westminster, Md.). The percent crosslinking was calculated as follows: Relative crosslinking=(1-(Comet moment drug treated-comet moment control/comet moment 900 rads-comet moment control))×100. To examine the ICL formation and removal, 8226 and LR5 were incubated in 25 μM or 50 μM melphalan and vehicle control, respectively for 2 hours after which they were cultured in drug free medium for various times. Cells were collected at 0 h, 3 h, 8 h and 23 h after 2 h drug treatment to perform the comet assay. […] An analysis of variance (ANOVA) model was used to quantify the relationship between the response variable and the two independent variables.

Assay [4] deals with 8226 cells. Nature of the assay: Alkaline comet assay, ICL formation and removal. In kind it is cell-based, human. As to conditions: within 17 hours after maximum ICL formation; 2 h exposure to 25 μM melphalan. On the procedure:
as §5

Assay [5] concerns plasma cells from bone marrow aspirates of myeloma patients. In words: Melphalan-induced apoptosis of patient specimens (TUNEL, kappa/lambda staining). The format is cell-based, human. As to conditions: 10 patient specimens. The text has this: To determine if CAM-DR occurred in patient specimens as well as myeloma cell lines, a double immunofluorescent assay was developed to simultaneously detect apoptotic plasma cells. After obtaining IRB approved consent, mononuclear cells from bone marrow aspirates obtained from patients with stage II and III myeloma were isolated by ficol-hypaque centrifugation and placed in αMEM media. One million cells/ml were adhered to FN or placed in suspension (0.1% poly-hema coated wells) for 2 hrs in serum free αMEM media. Following two hours of adhesion, fresh media with 15% FBS was added and cells were incubated for an additional 12-16 hrs. Following adhesion overnight, cells were treated with 200 uM melphalan for two hours and extracellular drug was removed and maintained in drug free media for an additional 24 hrs prior to fixation. Plasma cells were identified by either positive kappa or lambda staining (Vector laboratories, Burlingame, Calif.) and apoptotic plasma cells were identified by TUNEL analysis labeling using a commercially available kit (Intergen company, Purchase, N.Y., Cat. S7110). Fluorescence microscopy (Vysis, Downers Grove, Ill.) was used to count 500 total plasma cells per slide. Results following cell adhesion were compared to mononuclear cells exposed to melphalan in suspension culture.

The values that follow come from patent publication US8227434B1, “Materials and methods for treating oncological disorders” (H. Lee Moffitt Cancer Center & Research Institute, Inc., priority 2003, dated 2012).

On to `CCCCS(=N)(=O)CCC(N)C(=O)O` (stereo not drawn) [buthionine sulfoximine], for which, in the assay on LR5 cell line, the “effect on resistance to melphalan” value is “partially reversed resistance to melphalan”.
Turning to `N[C@@H](Cc1ccc(N(CCCl)CCCl)cc1)C(=O)O` [melphalan, Melphalan], the results for the “percent crosslinking, 8226/FN Mean (SE)” value in [1] (25 uM melphalan), in [1] (50 uM melphalan) and in [1] (100 uM melphalan) were 29.11 (0.888) %, 47.73 (2.141) % and 72.03 (2.09) %, respectively. Further, the “percent crosslinking, 8226/LR5 Mean (SE)” value was −4.49 (16.687) % with 8226/LR5 cell line (25 uM melphalan), 14.02 (8.648) % with 8226/LR5 cell line (50 uM melphalan) and 47.32 (9.121) % with 8226/LR5 cell line (100 uM melphalan). The “percent crosslinking, 8226/SUS Mean (SE)” value in assay [2] (25 uM melphalan, FIG. 3A) was 20.31 (9.579) %; in assay [2] (25 uM melphalan, FIG. 3B), 22.40 (9.458) %; in assay [2] (50 uM melphalan, FIG. 3B), 46.27 (5.850) %; in assay [2] (100 uM melphalan, FIG. 3A), 67.31 (4.110) %; in [2] (100 uM melphalan, FIG. 3B) it was 70.67 (6.175) %. Besides, the cell cycle effect entry in the assay with 8226 cells [3] is given as “arrested in G2/M phase”; with LR5 cells, “continue cell cycle progression”. Also, in the assay with 8226/LR5 cells, the ICL removed is 40%. The “removal of ICL” value in the assay with 8226 cells [4] was “no significant removal of ICL”. Moreover, the “mean percent apoptosis of plasma cells” value in assay [5] (adhered to FN prior to treatment with 200 uM melphalan) is listed as 27.7%; in [5] (maintained in cell suspension, 200 uM melphalan), 55.6%.
